US8722719B2, “Amine compound and use for same” (Kureha Corporation, priority 2010, dated 2014)

Experiments:
[1] = test system: HIV-1 IIIB infected MT-4 cells; assay: anti-HIV activity test (MTT viable cell count); assay type: cell-based; conditions: Human immunodeficiency virus 1, MT4, 120 h, MOI 0.01, 5 days, MTT method, read-out: EC50 (concentration at which cellular damage due to HIV infection is inhibited by 50%)
Description: In Test Example 1, the amine compound according to the present invention was subjected to the anti-HIV activity test. HIV-1 IIIB infected MT-4 cells (3.0×10^4 cells/well, MOI (multiplicity of infection): 0.01) were added to a 96-well microtiter plate together with the test compound (compound 1, A, or B) at a different concentration immediately after infection. After culturing the cells at 37° C. for 5 days using a carbon dioxide incubator, the number of viable cells was measured by the MTT (tetrazolium) method ([…] et al., J. Virol. Method, 20, 309-321, 1988).

[2] = oral absorption properties
[3] = hydrolysis in serum (background finding of the inventors); assay type: in vitro ADME; conditions: species not stated

oral absorption properties [2]	SMILES	EC50 [1] [nM]	hydrolysis in serum [3]
	CCCN(CCC)CCCCN(CCC(=O)OCCN(C)C)Cc1ccc(CN(Cc2ncc[nH]2)Cc2nccn2C)cc1 [Compound 1, 2-dimethylaminoethyl 3-[(4-dipropylaminobutyl)(4-{[(1H-imidazol-2-ylmethyl)(1-methyl-1H-imidazol-2-ylmethyl)amino]methyl}benzyl)amino]propionate]	3	
poor oral absorption properties	CCCN(CCC)CCCCN(CCC(=O)O)Cc1ccc(CN(Cc2ncc[nH]2)Cc2nccn2C)cc1 [Compound A, 3-[(4-dipropylaminobutyl)(4-{[(1H-imidazol-2-ylmethyl)(1-methyl-1H-imidazol-2-ylmethyl)amino]methyl}benzyl)amino]propionic acid]	3	
	CCCN(CCC)CCCCN(CCC(=O)OCC)Cc1ccc(CN(Cc2ncc[nH]2)Cc2nccn2C)cc1 [Compound B, ethyl 3-[(4-dipropylaminobutyl)(4-{[(1H-imidazol-2-ylmethyl)(1-methyl-1H-imidazol-2-ylmethyl)amino]methyl}benzyl)amino]propionate]	3	hydrolyzed to only a small extent in serum
